Values of other authors as cited in patent US12708515B2, “Valved devices, treatments and methods to restore tissue elastic recoil” (priority 2021, dated 2026).

Key:
E. coli and E. faecalis = settings: physiologically relevant conditions
E. coli = settings: cysteine terminated peptide; second value of the pair

Substance: LasioglossinIII
- antimicrobial activity of coated catheters (E. coli and E. faecalis): potent antimicrobial activity
- anti-biofilm (E. coli): 40% (anti-biofilm)
